Experimental data published in PMC8465942, “Cyano- and Ketone-Containing Selenoesters as Multi-Target Compounds against Resistant Cancers” (Cancers, 2021).
Entries after “also recorded” stand apart in the source; their conditions may differ. Marks after values point to notes of the source that are not given here.

What was measured:
HaCaT cell line = assay: Toxicity on HaCaT cells (IC10 used as dose); type: cell-based; settings: Homo sapiens, concentration inhibiting 10% of the population, highest non-toxic concentration, read-out: Dose IC10
Protocol: The activity of selenoesters was tested on several cancer cell lines, including HepG2 (hepatocellular carcinoma, CCL-23TM, ATCC); HeLa (cervical adenocarcinoma, CCL-2TM, ATCC); B16 (skin melanoma, CCL-6322TM, ATCC); and a non-cancerous cell line, HDF (human dermal fibroblasts, Sigma-Aldrich). HepG2, HeLa, B16, and HDF cell lines were cultivated in EMEM medium supplemented with 10% FBS, 2 mM L-glutamine, and 1% penicillin-streptomycin mixture. The HaCaT cell line was cultivated in DMEM medium supplemented with 10% FBS and 1% penicillin-streptomycin mixture. All of the cells were cultivated in a CO2 incubator (5% CO2, 37 °C). Twice per week, the cell lines were passaged according to a standardized protocol with a trypsin-EDTA solution. […]
Wound healing activity of selenoesters was evaluated as the ability of the cells to migrate and close the gap created on the monolayer of human keratinocytes (HaCaT cell line). The tested substances were applied in the highest possible non-toxic concentration (IC10, concentration inhibiting 10% of the population). In general, ketone-selenoesters were more toxic (except K4 and K1) than cyano-selenoesters (except N4); therefore, they were applied at lower doses (0.17–0.30 µM) when compared to cyanoselenoesters (0.36–0.64 µM). Compounds K1, K4, and N4 were applied at a concentration of 0.30, 0.46, and 0.20 µM, respectively. As could be seen in Table 8, all ketone-selenoesters stimulated wound healing more effectively in comparison to both untreated control (p < 0.0000005) and allantoin (p < 0.00005). […] Only samples N1, N2, N4, and N7 closed effectively the damaged wound in 24 h, with the gap closure around 70%.

[1] = test system: Colo 320/MDR-LRP human colonic adenocarcinoma cell line; assay: Cytotoxicity (MTT) on resistant Colo 320 cells; type: cell-based; settings: for IC50: Homo sapiens, COLO 320, 24 h, MTT, read-out: Colo 320 (IC50 µM) Mean; for SI MRC-5/Colo 320: ratio IC50 non-tumour cells / IC50 cancer cells
From the text: (§1) Three cell lines have been used in this study: the doxorubicin-sensitive Colo 205 (CCL-222, ATCC, Manassas, VA, USA) human colonic adenocarcinoma cell line; the multidrug resistant Colo 320/MDR-LRP expressing P-gp (MDR1)-LRP (CCL-220.1, ATCC) human colonic adenocarcinoma cell line; and the MRC-5 human embryonal lung fibroblast cell line (CCL-171, ATCC). The colon adenocarcinoma cell lines were purchased from LGC Promochem (Teddington, UK), and the MRC-5 cell line was purchased from Sigma-Aldrich (Merck KGaA, Darmstadt, Germany). Their culture conditions are as follows: Colo 205 (CCL-222, ATCC) and Colo 320/MDR-LRP expressing P-gp (MDR1)-LRP (CCL-220.1, ATCC) human colon adenocarcinoma cell lines were cultured in RPMI 1640 medium, supplemented with 10% FBS, 2 mM L-glutamine, 1 mM Na-pyruvate, and […]. The cell lines were incubated at 37 °C, 5% CO2, and 95% air atmosphere. The semi-adherent human colon cancer cells were detached with a Trypsin-Versene (EDTA) solution for 5 min at 37 °C. MRC-5 human embryonal lung fibroblast cells were cultured in EMEM containing 4.5 g/L of glucose and supplemented with a non-essential amino acid mixture, a selection of vitamins, and 10% FBS. The cell lines were incubated at 37 °C, 5% CO2, and 95% air atmosphere.
(§2) The effects of increasing concentrations of the compounds on cell growth were tested in 96-well flat-bottomed microtiter plates. Moreover, 10^4 of human colonic adenocarcinoma cells in 100 μL of the medium (RPMI-1640) were added to each well, except for the medium control wells. The adherent human embryonic lung fibroblast cell line was seeded in the EMEM medium for 4 h before the assay. The two-fold serial dilutions of the compounds were made in a separate plate (0.19–100 μM), and then transferred to the plates containing the adherent corresponding cell line. Culture plates were incubated at 37 °C for 24 h. At the end of the incubation period, 20 μL of MTT (thiazolyl blue tetrazolium bromide) solution (from a 5 mg/mL stock solution) were added to each well. After incubation at 37 °C for 4 h, 100 μL of sodium dodecyl sulfate (SDS) solution (10% SDS in 0.01 M HCl) was added to each well, and the plates were further incubated at 37 °C overnight. Cell growth was determined by measuring the optical density (OD) at 540 nm (ref. 630 nm) with a Multiscan EX ELISA reader (Thermo Labsystems, Cheshire, WA, USA). Inhibition of cell growth was expressed as IC50 values, defined as the inhibitory dose that reduces the growth of the cells exposed to the tested compounds by 50%. IC50 values and the SD of triplicate experiments were calculated by using GraphPad Prism software version 5.00 for Windows, with a non-linear regression curve fit (GraphPad Software, San Diego, CA, USA; www.graphpad.com, accessed on 12 July 2021). Doxorubicin (from a 2 mg/mL stock solution, Teva Pharmaceuticals) was used as a positive control.
(§3) The selectivity indexes (SI) were calculated as the ratio of the IC50 value in the non-tumour cells and the IC50 in the cancer cell lines. The compound’s activity towards cancer cells is considered as strongly selective if the selectivity index (SI) value is higher than 6, moderately selective if 3 < SI < 6, slightly selective if 1 < SI < 3, and non-selective if SI is lower than 1 [16].

[2] = test system: Colo 205 human colonic adenocarcinoma cell line; assay: Cytotoxicity (MTT) on sensitive Colo 205 cells; type: cell-based; settings: for IC50: Homo sapiens, COLO 205, 24 h, MTT, read-out: Colo 205 (IC50 µM) Mean; for SI MRC-5/Colo 205: ratio IC50 non-tumour cells / IC50 cancer cells
From the text: as §1, §2, §3

B16 (skin melanoma) = assay: Cytotoxicity on B16 cells; type: cell-based, murine; settings: Mus musculus
Protocol: (§4) The activity of selenoesters was tested on several cancer cell lines, including HepG2 (hepatocellular carcinoma, CCL-23TM, ATCC); HeLa (cervical adenocarcinoma, CCL-2TM, ATCC); B16 (skin melanoma, CCL-6322TM, ATCC); and a non-cancerous cell line, HDF (human dermal fibroblasts, Sigma-Aldrich). HepG2, HeLa, B16, and HDF cell lines were cultivated in EMEM medium supplemented with 10% FBS, 2 mM L-glutamine, and 1% penicillin-streptomycin mixture. The HaCaT cell line was cultivated in DMEM medium supplemented with 10% FBS and 1% penicillin-streptomycin mixture. All of the cells were cultivated in a CO2 incubator (5% CO2, 37 °C). Twice per week, the cell lines were passaged according to a standardized protocol with a trypsin-EDTA solution.
as §3

[3] = test system: resistant Colo 320 colon adenocarcinoma cells expressing the ABCB1 transporter; assay: Checkerboard combination assay with doxorubicin; type: cell-based, human
Protocol: A checkerboard microplate method was applied to study the effect of drug interactions between the selenocompounds and the chemotherapeutic drug doxorubicin on resistant Colo 320 colon adenocarcinoma cells expressing the ABCB1 transporter. Results were expressed in terms of the combination index (CI) values at 50% growth inhibition (ED50), which were determined by using CompuSyn software to plot 4 or 5 data points for each ratio.
To perform the experiment, the dilutions of doxorubicin were made in a horizontal direction in 100 µL, and the dilutions of the Se-compounds were made vertically in the microtiter plate in a volume of 50 µL. The cells were re-suspended in the culture medium and distributed into each well in 50 µL portions containing 6000 cells. The plates were incubated for 72 h at 37 °C in a CO2 incubator. The cell growth rate was determined after MTT staining. At the end of the incubation period, 20 μL of MTT solution was added to each well. After incubation at 37 °C for 4 h, 100 μL of SDS was added to each well and the plates were further incubated at 37 °C overnight. The optical density (OD) was measured at 540/630 nm with the Multiscan EX ELISA reader.

[4] = test system: HepG2 (hepatocellular carcinoma); assay: Cytotoxicity on HepG2 cells; type: cell-based, human; settings: ratio IC50 non-tumour cells / IC50 cancer cells
[5] = test system: HeLa (cervical adenocarcinoma); assay: Cytotoxicity on HeLa cells; type: cell-based; settings: Homo sapiens
Protocol: as §4, §3

[6] = test system: HepG2 (hepatocellular carcinoma); assay: Cytotoxicity on HepG2 cells; type: cell-based; settings: Homo sapiens
Protocol: as §4, §3

[7] = Cytotoxicity (MTT) on normal MRC-5 fibroblasts; type: cell-based; settings: human
From the text: as §1, §2

[8] = test system: human keratinocyte (HaCaT); assay: Wound healing scratch assay; type: cell-based; settings: 50 µg/mL positive control
Protocol: Wound healing activity was realized using human keratinocyte (HaCaT, Thermo Fisher Scientific, Waltham, MA, USA). Wound healing was measured in vitro by scratch assay, as the migration rate of the cells to close the gap was created, as described by Ling et al., with slight modifications. Briefly, HaCaT cells at the concentration of 5×10^5 cells were seeded into 12-well plates and incubated at 37 °C and 5% CO2 until the cells formed a uniform layer. After layer formation, the cells were washed with PBS and then scratched with a sterile micropipette tip. […] The images of the scratch area were captured using an inverted microscope in 4× magnification at different time intervals (0 h, 24 h, 48 h) and evaluated using ImageJ software (National Institutes of Health, Bethesda, MD, USA). All of the experiments were performed in four replicates, and a minimum of five measurements were considered from each image captured. Dean–Dixon’s test was used to remove the outliners in the values measured, and further statistical significances between the groups were established by t-test (Excel, Microsoft Office, Redmond, WA, USA). The wound closure was calculated as the ratio of the gap size at the beginning minus the gap size at the evaluated time.

Structure (SMILES)	IC10 (HaCaT cell line)	IC50 [1]	SI MRC-5/Colo 320 [1]	IC50 [2]	SI MRC-5/Colo 205 [2]	IC50 (B16 (skin melanoma))	SI MRC-5/HepG2 [4]	IC50 [5]	melting point	IC50 [6]	IC50 at 24 h [7]	other results
N#CC[Se]C(=O)c1cccs1 [N1, Se-(Cyanomethyl) Thiophene-2-carboselenoate]	0.4 µM	7.64 µM	>6 *	2.37 µM	>6 *	1.9 µM	>6 *	2 µM	50 to 52 °C	11.3 µM	> 100 µM	Interaction with doxorubicin ([3]; in at least one of the ratios tested): synergistic manner; also recorded: synergistic effect; Type of Interaction ([3]; ratio 1.7:1, starting conc. 15 µM): Antagonism; Type of Interaction ([3]; ratio 3.4:1, starting conc. 15 µM): Synergism; Type of Interaction ([3]; ratio 6.8:1, starting conc. 15 µM): Synergism; Type of Interaction ([3]; ratio 13.6:1, starting conc. 15 µM): Additive effect; Type of Interaction ([3]; ratio 27.2:1, starting conc. 15 µM): Synergism
N#CC[Se]C(=O)c1ccc(F)c(Cl)c1 [N6, Se-(Cyanomethyl) 3-Chloro-4-fluorobenzoselenoate]	0.6 µM	5.19 µM	>6 *	2.24 µM	>6 *	1.7 µM	>6 *	1.3 µM	73 to 75 °C	9.6 µM	> 100 µM	Type of Interaction ([3]; ratio 1.2:1, starting conc. 10 µM): Antagonism; Type of Interaction ([3]; ratio 4.8:1, starting conc. 10 µM): Antagonism; Type of Interaction ([3]; ratio 9.6:1, starting conc. 10 µM): Antagonism; Type of Interaction ([3]; ratio 19.2:1, starting conc. 10 µM): Antagonism; Type of Interaction ([3]; ratio 38.4:1, starting conc. 10 µM): Antagonism
NC(=O)NC1NC(=O)NC1=O (centres unmarked) [PC, Allantoin]	–	–	–	–	–	–	–	–	–	–	–	Closure (%) 24 h ([8]; 24 h): 70.37%; Closure (%) 48 h ([8]; 48 h): 84.63%
